Test results taken from patent US11312721B2 (priority 2015, dated 2022).

Molecular target: T1, α5β3γ2 GABAA receptors (Ltk cells) (Homo sapiens, UniProt P18507+P31644)
T1 construct: membranes
Test: Binding activity on GABAAR: inhibition of [3H]Ro15-1788 binding
Details: not given
Procedure: Tissue culture and Membrane Preparation: The binding was performed on Ltk cells stably expressing GABAA receptors: α1β1γ2, α2β3γ2, α3β3γ2 and α5β3γ2 (provided by Merck Co., NJ, USA). Cells were seeded in 100 mm culture plates in DMEM/F12 medium containing 10% serum and antibiotics in 5% CO2 and allowed to grow for 1-2 days. GABAAR expression was then induced by dexamethasone as follows: 0.5 μM for 1 day for α5 containing and 2 μM for 3 days for α1, α2 and α3 containing GABAARs. After induction, cells were collected by scraping into Dulbecco's Phosphate buffered saline (DPBS, pH 7.4, Invitrogen, Carlsbad, Calif., USA) and centrifuged at 150×g for 10 min. The pellet was washed twice by re-suspension and centrifugation. The cell pellets from at least 5 different preps were combined, suspended in the binding assay buffer (50 mM KH2PO4; 1 mM EDTA; 0.2 M KCl, pH 7.4) and membranes prepared by sonication (3-5 times, 30 sec) using Branson Sonifier 150 (G. Heinmann, Germany). Protein content was determined using BCA assay (Bio-Rad Labs, Reinach, Switzerland) with Bovine Serum Albumin (Sigma Aldrich, St. Louis, Mo., USA) as the standard. Aliquots were prepared and stored at −20° C. for further use in binding assays.
Ligand Binding: Saturation binding curves were obtained by incubating membranes with increasing concentrations (0.01-8 nM) of [^3H]Ro15-1788 (Flumazepil, 75-85 Ci/mmol, PerkinElmer, MA, USA), with nonspecific binding measured in the presence of 10 μM diazepam.
All binding assays were performed for 1 h at 4° C. in assay buffer. The total assay volume was 0.5 ml containing 0.2 mg/ml protein for α5 and 0.4 mg/ml for α1, α2, and α3 containing GABAAR membranes. Incubations were terminated by filtration through GF/B filters using a 24-Cell Harvestor (Brandel, Gaithersburg, Md., USA) followed by 3 washes with ice-cold assay buffer. Filters were transferred to scintillation vials, 5 ml scintillation liquid added, vortex-mixed and kept in dark. Next day, radioactivity was obtained using a scintillation counter (Beckman Coulter, Brea, Calif., USA). All assays were performed in triplicate.
Data Analyses: Saturation and inhibition curves were obtained using GraphPad Prism software (GraphPad Software, Inc., CA, USA).

T1 sequence (P31644 32-462): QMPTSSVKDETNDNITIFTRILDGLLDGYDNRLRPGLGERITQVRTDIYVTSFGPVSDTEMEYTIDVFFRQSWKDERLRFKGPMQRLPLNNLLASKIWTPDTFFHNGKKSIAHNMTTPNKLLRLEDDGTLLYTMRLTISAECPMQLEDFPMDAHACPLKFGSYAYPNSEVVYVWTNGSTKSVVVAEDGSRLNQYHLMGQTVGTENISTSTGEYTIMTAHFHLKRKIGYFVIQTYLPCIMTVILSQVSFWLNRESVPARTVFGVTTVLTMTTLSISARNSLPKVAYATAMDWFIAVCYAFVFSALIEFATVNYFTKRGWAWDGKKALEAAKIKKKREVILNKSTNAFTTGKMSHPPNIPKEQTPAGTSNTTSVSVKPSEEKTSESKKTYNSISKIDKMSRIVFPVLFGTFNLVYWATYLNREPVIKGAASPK
T1 sequence (P28472 26-473 partner): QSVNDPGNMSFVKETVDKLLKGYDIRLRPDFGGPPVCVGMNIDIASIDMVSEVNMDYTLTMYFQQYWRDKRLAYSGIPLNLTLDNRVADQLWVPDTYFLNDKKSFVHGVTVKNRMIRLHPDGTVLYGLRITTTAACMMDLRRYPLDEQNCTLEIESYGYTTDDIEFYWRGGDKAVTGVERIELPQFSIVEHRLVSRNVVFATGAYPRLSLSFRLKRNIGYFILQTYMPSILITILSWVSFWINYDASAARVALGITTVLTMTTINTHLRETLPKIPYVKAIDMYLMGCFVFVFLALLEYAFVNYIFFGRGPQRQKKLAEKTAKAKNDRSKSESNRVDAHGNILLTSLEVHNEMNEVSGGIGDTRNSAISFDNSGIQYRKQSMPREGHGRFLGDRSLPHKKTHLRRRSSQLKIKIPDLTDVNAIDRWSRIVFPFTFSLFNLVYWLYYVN
T1 sequence (P18507 40-475): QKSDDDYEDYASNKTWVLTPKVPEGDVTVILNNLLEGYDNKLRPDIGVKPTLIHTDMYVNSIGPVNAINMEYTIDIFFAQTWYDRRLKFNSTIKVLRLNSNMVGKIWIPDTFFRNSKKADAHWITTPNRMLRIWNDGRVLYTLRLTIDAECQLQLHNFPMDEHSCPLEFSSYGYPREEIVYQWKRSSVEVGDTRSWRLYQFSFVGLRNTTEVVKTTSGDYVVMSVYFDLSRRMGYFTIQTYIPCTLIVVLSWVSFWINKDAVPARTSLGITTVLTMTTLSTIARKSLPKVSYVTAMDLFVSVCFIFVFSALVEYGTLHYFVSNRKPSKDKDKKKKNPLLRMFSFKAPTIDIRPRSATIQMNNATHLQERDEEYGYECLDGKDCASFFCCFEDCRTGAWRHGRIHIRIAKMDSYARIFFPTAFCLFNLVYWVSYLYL

Compound | Ki [nM]
CCOC(=O)c1ncn2c1Cc1c(Cc3ccc(F)cc3)nnn1-c1cc(F)ccc1-2 [Compound 46] | < 99
CCOC(=O)c1ncn2c1Cc1c(Cc3ccccc3Cl)nnn1-c1cc(C)ccc1-2 [Compound 54] | < 99
CCOC(=O)c1ncn2c1Cc1c(Cc3ccccc3)nnn1-c1cc(C)ccc1-2 [Compound 101] | < 99
CCOC(=O)c1ncn2c1Cc1c(C)nnn1-c1cc(C)ccc1-2 [Compound 102] | < 99
Cc1cccc(C)c1OCc1nnc2n1Cc1c(-c3noc(C(C)C)n3)ncn1-c1ccc(F)cc1-2 [Compound 190] | < 99
N#Cc1ncn2c1Cn1c(COc3ccccc3)nnc1-c1cc(Cl)ccc1-2 [Compound 197] | < 99
COCc1nnc2n1Cc1c(-c3nc(C(C)C)no3)ncn1-c1ccc(Cl)cc1-2 [Compound 206] | < 99
COc1ccc2c(c1)-n1nnc(Cc3ccccc3Cl)c1Cc1c(C#N)ncn1-2 [Compound 208] | < 99
COc1ccc2c(c1)-n1nnc(Cc3cccc(Cl)c3)c1Cc1c(C#N)ncn1-2 [Compound 209] | < 99
CCOCc1nnc2n1Cc1c(Br)ncn1-c1ccc(Cl)cc1-2 [Compound 216] | < 99
COCc1nnc2n1Cc1c(Br)ncn1-c1ccc(Cl)cc1-2 [Compound 217] | < 99
C#Cc1ncn2c1Cc1c(C(=O)c3ccc(F)cc3)nnn1-c1cc(OC)ccc1-2 [Compound 218] | < 99
COc1ccc2c(c1)-n1nnc(COc3ccccc3F)c1Cc1c(C#N)ncn1-2 [Compound 223] | < 99
N#Cc1ncn2c1Cc1c(COc3cccc(F)c3)nnn1-c1cc(Cl)ccc1-2 [Compound 227] | < 99
CC(C)c1nc(-c2ncn3c2Cc2c(C(=O)c4ccc(F)cc4)nnn2-c2ccc(F)cc2-3)no1 [Compound 230] | < 99
COc1ccc2c(c1)-c1nnc(COc3ccccc3)n1Cc1c(Br)ncn1-2 [Compound 232] | < 99
COCc1nnc2n1Cc1c(-c3cc(C)no3)ncn1-c1ccc(Cl)cc1-2 [Compound 233] | < 99
C#CCNC(=O)c1ncn2c1Cn1c(COC)nnc1-c1cc(Cl)ccc1-2 [Compound 234] | > 1000
COc1ccc2c(c1)-c1nnc(COc3cccnc3)n1Cc1c(Br)ncn1-2 [Compound 235] | < 99
C#Cc1ncn2c1Cn1c(COc3ccccc3)nnc1-c1cc(OC)ccc1-2 [Compound 236] | < 99
C#Cc1ncn2c1Cn1c(COc3cccnc3)nnc1-c1cc(OC)ccc1-2 [Compound 241] | < 99
COCc1nnc2n1Cc1c(C3=NC(c4ccccc4)CO3)ncn1-c1ccc(Cl)cc1-2 (stereo not drawn) [Compound 242] | < 99
COCc1nnc2n1Cc1c(-c3nc(C)co3)ncn1-c1ccc(Cl)cc1-2 [Compound 244] | < 99

Compound | Ki [nM]
COCc1nnc2n1Cc1c(-c3nc(-c4ccccc4)co3)ncn1-c1ccc(Cl)cc1-2 [Compound 245] | < 99
COc1ccc2c(c1)-n1nncc1Cc1c(-c3nc(C)no3)ncn1-2 [Compound 258] | < 99
CCOCc1nnc2n1Cc1c(C3=NC(C)CO3)ncn1-c1ccc(Cl)cc1-2 (stereo not drawn) [Compound 259] | < 99
CCOCc1nnc2n1Cc1c(C3=NC(c4ccccc4)CO3)ncn1-c1ccc(Cl)cc1-2 (stereo not drawn) [Compound 260] | < 99
C#Cc1ncn2c1Cn1c(COCC)nnc1-c1cc(Cl)ccc1-2 [Compound 261] | < 99
COCc1nnc2n1Cc1c(C3=N[C@H](c4ccccc4)CO3)ncn1-c1ccc(Cl)cc1-2 [Compound 263] | < 99
CC(C)OCc1nnc2n1Cc1c(C3=N[C@H](c4ccccc4)CO3)ncn1-c1ccc(Cl)cc1-2 [Compound 268] | < 99
CC(C)OCc1nnc2n1Cc1c(C3=N[C@@H](c4ccccc4)CO3)ncn1-c1ccc(Cl)cc1-2 [Compound 270] | < 99
CCOCc1nnc2n1Cc1c(C3=N[C@@H](c4ccccc4)CO3)ncn1-c1ccc(Cl)cc1-2 [Compound 275] | < 99
CC(C)OCc1nnc2n1Cc1c(-c3nc(-c4ccccc4)co3)ncn1-c1ccc(Cl)cc1-2 [Compound 276] | < 99
COc1ccc2c(c1)-n1nnc(C)c1Cc1c(-c3nc(C(C)C)no3)ncn1-2 [Compound 277] | < 99
C#Cc1ccc2c(c1)-c1nnc(COC)n1Cc1c(C3=N[C@H](CC(C)C)CO3)ncn1-2 [Compound 280] | < 99
COCc1nnc2n1Cc1c(C3=N[C@H](C)CO3)ncn1-c1ccc(Cl)cc1-2 [Compound 282] | < 99
COCc1nnc2n1Cc1c(C#Cc3ccccc3)ncn1-c1ccc(Cl)cc1-2 [Compound 285] | < 99
C#Cc1ncn2c1Cn1c(COC(C)C)nnc1-c1cc(Cl)ccc1-2 [Compound 288] | < 99
COc1ccc2c(c1)-n1nncc1Cc1c(C3=N[C@@H](c4ccccc4)CO3)ncn1-2 [Compound 289] | < 99
COc1ccc2c(c1)-n1nncc1Cc1c(C3=N[C@H](C)CO3)ncn1-2 [Compound 291] | < 99
COCc1nnc2n1Cc1c(C3=NC[C@@H](C)O3)ncn1-c1ccc(Cl)cc1-2 [Compound 294] | < 99
COCc1nnc2n1Cc1c(C3=NC[C@H](C)O3)ncn1-c1ccc(Cl)cc1-2 [Compound 295] | < 99
COCc1nnc2n1Cc1c(-c3ncc(C)o3)ncn1-c1ccc(Cl)cc1-2 [Compound 296] | < 99
C#Cc1ccc2c(c1)-c1nnc(COC)n1Cc1c(C3=N[C@@H](c4ccccc4)CO3)ncn1-2 [Compound 301] | < 99
C#Cc1ccc2c(c1)-c1nnc(COC)n1Cc1c(-c3nc(-c4ccccc4)co3)ncn1-2 [Compound 302] | < 99
FC(F)(F)COCc1nnc2n1Cc1c(C3=N[C@@H](c4ccccc4)CO3)ncn1-c1ccc(Cl)cc1-2 [Compound 304] | < 99

Molecular target: T2, GABAA receptors (α5β2γ2) (Homo sapiens, UniProt P18507+P31644)
T2 construct: expressed in transfected cells
Test: Positive allosteric modulator activity: potentiation of EC20 GABA current in oocytes
Type: cell-based
Details: read-out: GABA α5 functional potentiation
Procedure: On day 1, 1 ng/32 nL of GABAA α5β2γ2 cDNA was injected into one oocyte. Test starts on day 2. The cDNA injected to the oocytes was a mix of alpha, beta and gamma, their ratio is 1:1:10 (by weight) and the total weight of the mixed 3 subunits to be injected in one oocyte was 1 ng in 32 nl volume. The injected oocytes can also be tested on day 3. In such case, the cDNA amount injected to the oocytes should be reduced by 20%.
1). 8 oocytes were placed in 8 chambers of OpusXpress and superfused with Modified Barth's Saline (MBS) at 3 mL/min. Glass electrodes back-filled with 3M KCl (0.5-3 megaohms) were used.
1). Repeat the above steps 1), 2) and 3) in the control test.
2). […] Divide Itest by IGABA to obtain potentiation (%).
3). Discard all tested oocytes, new oocytes were used and the above steps 1) and 2) were repeated to test second concentration of the same compound. Each oocyte was used for only one concentration test for a single test compound. The steps were repeated for other test compounds.

T2 sequence (P31644 32-462): as the sequence (P31644 32-462) above
T2 sequence (P47870 25-512 partner limits assumed): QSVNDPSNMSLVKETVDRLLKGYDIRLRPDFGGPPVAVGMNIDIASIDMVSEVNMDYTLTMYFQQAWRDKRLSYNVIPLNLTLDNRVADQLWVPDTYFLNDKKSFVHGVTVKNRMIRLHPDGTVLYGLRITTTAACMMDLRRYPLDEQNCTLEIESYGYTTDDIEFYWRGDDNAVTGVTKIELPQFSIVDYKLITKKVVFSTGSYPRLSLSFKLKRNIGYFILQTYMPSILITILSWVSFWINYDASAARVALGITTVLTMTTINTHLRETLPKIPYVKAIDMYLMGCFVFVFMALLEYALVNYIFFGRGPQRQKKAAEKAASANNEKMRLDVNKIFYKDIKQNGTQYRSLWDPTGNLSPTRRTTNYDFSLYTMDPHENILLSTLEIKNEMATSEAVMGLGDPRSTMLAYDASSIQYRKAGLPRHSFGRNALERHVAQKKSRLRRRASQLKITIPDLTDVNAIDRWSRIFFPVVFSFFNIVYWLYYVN
T2 sequence (P18507 40-475): as the sequence (P18507 40-475) above

Compound | activation at 0.1 µM [%]
CCOC(=O)c1ncn2c1Cc1c(C)nnn1-c1cc(OC)ccc1-2 [Compound 1] | 20 to 49
CCOC(=O)c1ncn2c1Cc1c(C)nnn1-c1cc(F)ccc1-2 [Compound 2] | 20 to 49
CCOC(=O)c1ncn2c1Cc1c(COc3ccccc3)nnn1-c1cc(OC)ccc1-2 [Compound 9] | 20 to 49
CCOC(=O)c1ncn2c1Cc1c(COc3cccc(OC)c3)nnn1-c1cc(OC)ccc1-2 [Compound 11] | 20 to 49
CCOC(=O)c1ncn2c1Cc1c(Cc3ccc(Cl)cc3)nnn1-c1cc(F)ccc1-2 [Compound 45] | 20 to 49
CCOC(=O)c1ncn2c1Cc1c(CN3CCCC3)nnn1-c1cc(OC)ccc1-2 [Compound 48] | 20 to 49
CCOC(=O)c1ncn2c1Cn1c(COc3ccccc3)nnc1-c1cc(OC)ccc1-2 [Compound 55] | 20 to 49
Cc1noc(-c2ncn3c2Cc2c(Cc4ccccc4)nnn2-c2cc(F)ccc2-3)n1 [Compound 109] | 20 to 49
Cc1noc(-c2ncn3c2Cc2c(C)nnn2-c2cc(F)ccc2-3)n1 [Compound 110] | 20 to 49
CCOC(=O)c1ncn2c1Cc1c(Cc3cccnc3)nnn1-c1cc(C)ccc1-2 [Compound 111] | 20 to 49
Cc1nnn2c1Cc1c(C(=O)OCC(C)(C)C)ncn1-c1ccc(F)cc1-2 [Compound 113] | > 50
Cc1nnn2c1Cc1c(C(=O)OCC(F)(F)F)ncn1-c1ccc(F)cc1-2 [Compound 114] | > 50
COc1ccc2c(c1)-c1nnc(COc3ccccc3)n1Cc1c(C(=O)OC(C)C)ncn1-2 [Compound 120] | 20 to 49
Cc1noc(-c2ncn3c2Cc2c(C)nnn2-c2ccccc2-3)n1 [Compound 126] | 20 to 49
Cc1nc(-c2ncn3c2Cc2c(C)nnn2-c2ccccc2-3)no1 [Compound 127] | 20 to 49
COCc1nnc2n1Cc1c(-c3nc(C)no3)ncn1-c1ccc(OC)cc1-2 [Compound 128] | 20 to 49
COCc1nnc2n1Cc1c(-c3nc(C(C)C)no3)ncn1-c1ccc(OC)cc1-2 [Compound 130] | 20 to 49
